The record followed here is ChEMBL document CHEMBL3045287, “Synthesis and antimicrobial activity of morpholinyl/piperazinylbenzothiazines” (2012).

The first assay concerns Bacillus cereus. Description: Antimicrobial activity against Bacillus cereus at 30 ug/ml after 24 hr by well diffusion assay. The note with it: read-out: IZ. Format: functional.
For the compound `O=C(N[C@H](CO)[C@H](O)c1ccc([N+](=O)[O-])cc1)C(Cl)Cl` [CHLORAMPHENICOL], the zone of inhibition at 30 µg/mL was found to be 10 mm.

Take `Cc1ccc2c(c1)SC(C(=O)N1CCOCC1)=C(C(C)C)N2`: the zone of inhibition at 30 µg/mL is 10 mm.

In the case of `CC1=C(C(=O)N2CCOCC2)Sc2cc(C)ccc2N1`, the zone of inhibition at 30 µg/mL amounted to 9 mm.

As for `CC1=C(C(=O)N2CCN(CCO)CC2)Sc2cc(Cl)ccc2N1`, the zone of inhibition at 30 µg/mL was found to be 9 mm.

As to `CC1=C(C(=O)N2CCOCC2)Sc2cc(Cl)ccc2N1`, the zone of inhibition at 30 µg/mL worked out at 8 mm.

In the case of `CC1=C(C(=O)N2CCOCC2)Sc2ccccc2N1`, the zone of inhibition at 30 µg/mL is 12 mm.

In the case of `CC1=C(C(=O)N2CCN(CCO)CC2)Sc2ccccc2N1`, the zone of inhibition at 30 µg/mL is 7 mm.

Another assay has as its system Escherichia coli. As to the kind of experiment: Antimicrobial activity against Escherichia coli at 30 ug/ml after 24 hr by well diffusion assay. The note with it: read-out: IZ. It counts as functional. On the technique in general: Agar diffusion results depend on both activity and mobility in agar.
Turning to `O=C(N[C@H](CO)[C@H](O)c1ccc([N+](=O)[O-])cc1)C(Cl)Cl` [CHLORAMPHENICOL], the zone of inhibition at 30 µg/mL is 9 mm.

As for `Cc1ccc2c(c1)SC(C(=O)N1CCOCC1)=C(C(C)C)N2`, the zone of inhibition at 30 µg/mL was determined as 7 mm.

In the case of `CC1=C(C(=O)N2CCOCC2)Sc2cc(C)ccc2N1`, the zone of inhibition at 30 µg/mL turned out to be 12 mm.

For `CC1=C(C(=O)N2CCN(CCO)CC2)Sc2cc(Cl)ccc2N1`, the zone of inhibition at 30 µg/mL is 11 mm.

Take `CC1=C(C(=O)N2CCOCC2)Sc2cc(Cl)ccc2N1`: the zone of inhibition at 30 µg/mL stood at 8 mm.

`CC1=C(C(=O)N2CCOCC2)Sc2ccccc2N1`: the zone of inhibition at 30 µg/mL was 9 mm.

Consider `CC1=C(C(=O)N2CCN(CCO)CC2)Sc2ccccc2N1`, for which the zone of inhibition at 30 µg/mL turned out to be 9 mm.
